Laboratory results from patent US9775353B2, “Pesticidally active heterocyclic derivatives with sulphur containing substituents” (Syngenta Participations AG, priority 2014, dated 2017).

Columns and labels:
Format in all cases: in vivo
[1] = tested on: Spodoptera littoralis (Egyptian cotton leaf worm); test: Example B1: Activity against Spodoptera littoralis (larvicide, feeding/residual contact, preventive); details: foliar, 72 h, cotton leaf discs sprayed, L1 larvae, mortality, repellent effect, feeding behaviour, growth regulation 3 days after treatment
Description: Example B1: Activity Against Spodoptera littoralis (Egyptian Cotton Leaf Worm) (Larvicide, Feeding/Residual Contact Activity, Preventive) Cotton leaf discs were placed on agar in a 24-well microtiter plate and sprayed with test solutions. After drying, the leaf discs were infested with 5 L1 larvae. The samples were checked for mortality, repellent effect, feeding behaviour, and growth regulation 3 days after treatment (DAT).

[2] = tested on: Plutella xylostella (diamond back moth); test: Example B2: Activity against Plutella xylostella (larvicide, feeding/residual contact, preventive); details: 120 h, artificial diet, L2 larvae, larval mortality, antifeedant, growth regulation after 5 days
Protocol: Example B2: Activity Against Plutella xylostella (Diamond Back Moth) (Larvicide, Feeding/Residual Contact Activity, Preventive) 24-well microtiter plate (MTP) with artificial diet was treated with test solutions by pipetting. After drying, the MTPs were infested with L2 larvae (10-15 per well). After an incubation period of 5 days, samples were checked for larval mortality, antifeedant and growth regulation.

[3] = tested on: Diabrotica balteata (corn root worm); test: Example B3: Activity against Diabrotica balteata (larvae L2 on maize sprouts, feeding/contact, preventative); details: 120 h, maize sprouts sprayed, larval mortality and growth regulation after 5 days
Protocol: Example B3: Activity Against Diabrotica balteata (Corn Root Worm) (Larvae L2 on Maize Sprouts, Feeding/Contact, Preventative) Maize sprouts, placed on an agar layer in 24 well micro titer plates were treated with test solutions by spraying. After drying, the MTPs were infested with L2 larvae (6-10 per well). After an incubation period of 5 days, samples were checked for larval mortality and growth regulation.

[4] = tested on: Bemisia tabaci (cotton white fly); test: Example B5: Activity against Bemisia tabaci (adulticide contact activity, preventative); details: foliar, 168 h, cotton leaf discs sprayed, adult white flies, mortality 7 DAT
Protocol: Example B5: Activity Against Bemisia tabaci (Cotton White Fly) (Adulticide Contact Activity, Preventative), Adult Cotton leaf discs were placed on agar in a 24-well microtiter plate and sprayed with test solutions. After drying, the leaf discs were infested with adult white flies. After an incubation period of 7 DAT, samples were checked for mortality and special effects (e.g. phytotoxicity).

[5] = tested on: Spodoptera littoralis (Egyptian cotton leaf worm); test: Example B7: Activity against Spodoptera littoralis (systemic activity); details: 120 h, systemic via lettuce roots in agar, mortality, repellent effect, feeding behavior, growth regulation 5 days after infestation
Description: Example B7: Activity Against Spodoptera littoralis (Egyptian Cotton Leaf Worm) (Systemic Activity) Test compounds were applied by pipette into 24 well plates and mixed with agar. Lettuce seeds were placed on the agar and the multi well plate is closed by another plate which contains also agar. After 7 days the roots have absorbed the compound and the lettuce has grown into the lid plate. The lettuce leaves were now cut off into the lid plate. Spodoptera eggs were pipetted through a plastic stencil on a humid gel blotting paper and the plate closed with it. The samples are checked for mortality, repellent effect, feeding behavior, and growth regulation 5 days after infestation.

[6] = tested on: Myzus persicae (green peach aphid); test: Example B8: Activity against Myzus persicae (feeding/residual contact, preventive, mixed population); details: foliar, 144 h, sunflower leaf discs sprayed, mixed ages, mortality 6 DAT
Protocol: Example B8: Activity Against Myzus persicae (Green Peach Aphid) (Feeding/Residual Contact Activity, Preventive), Mixed Population Sunflower leaf discs were placed on agar in a 24-well microtiter plate and sprayed with test solutions. After drying, the leaf discs were infested with an aphid population of mixed ages. After an incubation period of 6 DAT, samples were checked for mortality and special effects (e.g. phytotoxicity).

[7] = tested on: Euschistus heros (neotropical brown stink bug); test: Example B10: Activity against Euschistus heros; details: 120 h, soybean leaf sprayed, N-2 nymphs, mortality 5 days after infestation
Protocol: Example B10: Activity Against Euschistus heros (Neotropical Brown Stink Bug) Soybean leaf on agar in 24-well microtiter plates were sprayed with aqueous test solutions prepared from 10,000 ppm DMSO stock solutions. After drying the leaf were infested with N-2 nymphs. The samples were assessed for mortality 5 days after infestation.

Structure (SMILES) | pest or weed control at 400 ppm [1] | pest or weed control at 400 ppm [2] | pest or weed control at 400 ppm [3] | pest or weed control at 400 ppm [4] | pest or weed control at 12.5 ppm [5] | pest or weed control at 400 ppm [6] | pest or weed control at 400 ppm [7]
CCS(=O)(=O)c1cc(-c2ccc(Cl)cc2)cnc1-c1nc2cc(C(F)(F)F)ncc2n1C [Compound P1, 2-[5-(4-chlorophenyl)-3-ethylsulfonyl-2-pyridyl]-3-methyl-6-(trifluoromethyl)imidazo[4,5-c]pyridine] | > 80% | > 80% | > 80% | > 80% | ≥ 80% | > 80% | > 80%
CCS(=O)(=O)c1cc(-c2ccc(C(F)(F)F)cc2)cnc1-c1nc2cc(C(F)(F)F)ncc2n1C [Compound P2] | > 80% | > 80% | > 80% | > 80% | ≥ 80% | > 80% | > 80%
CCS(=O)(=O)c1cc(-c2cccc(C(F)(F)F)c2)cnc1-c1nc2cc(C(F)(F)F)ncc2n1C [Compound P3] | > 80% | > 80% | > 80% | > 80% | ≥ 80% | > 80% | > 80%
CCS(=O)(=O)c1cc(-c2cccc(Cl)c2)cnc1-c1nc2cc(C(F)(F)F)ncc2n1C [Compound P5] | > 80% | > 80% | > 80% | > 80% | ≥ 80% | > 80% | > 80%
CCS(=O)(=O)c1cc(-c2ccc(Cl)c(Cl)c2)cnc1-c1nc2cc(C(F)(F)F)ncc2n1C [Compound P6] | > 80% | > 80% | > 80% | – | ≥ 80% | > 80% | > 80%
CCS(=O)(=O)c1cc(-c2ccc(Cl)cc2Cl)cnc1-c1nc2cc(C(F)(F)F)ncc2n1C [Compound P8] | > 80% | > 80% | > 80% | > 80% | – | > 80% | –
CCS(=O)(=O)c1cc(-c2ccc(OC)c(F)c2)cnc1-c1nc2cc(C(F)(F)F)ncc2n1C [Compound P9] | > 80% | > 80% | > 80% | – | – | > 80% | –
CCS(=O)(=O)c1cc(-c2cc(C)c(OC)c(C)c2)cnc1-c1nc2cc(C(F)(F)F)ncc2n1C [Compound P10] | – | > 80% | > 80% | – | – | – | –
CCS(=O)(=O)c1cc(-c2cc(F)ccc2F)cnc1-c1nc2cc(C(F)(F)F)ncc2n1C [Compound P11] | > 80% | > 80% | > 80% | – | – | > 80% | > 80%
CCS(=O)(=O)c1cc(-c2ccccc2Cl)cnc1-c1nc2cc(C(F)(F)F)ncc2n1C [Compound P12] | > 80% | > 80% | > 80% | – | – | > 80% | > 80%
CCS(=O)(=O)c1cc(-c2ccc(Cl)cc2C)cnc1-c1nc2cc(C(F)(F)F)ncc2n1C [Compound P14, 2-[5-(4-chloro-2-methyl-phenyl)-3-ethylsulfonyl-2-pyridyl]-3-methyl-6-(trifluoromethyl)imidazo[4,5-c]pyridine] | > 80% | > 80% | > 80% | – | – | > 80% | > 80%
CCSc1cc(-c2ccc(Cl)cc2)cnc1-c1nc2cc(C(F)(F)F)ncc2n1C [Compound P15, 2-[5-(4-chlorophenyl)-3-ethylsulfanyl-2-pyridyl]-3-methyl-6-(trifluoromethyl)imidazo[4,5-c]pyridine] | > 80% | > 80% | > 80% | – | – | – | > 80%
CCS(=O)(=O)c1cc(-c2cccc(-c3nnc(C)o3)c2)cnc1-c1nc2cc(C(F)(F)F)ncc2n1C [Compound P20] | > 80% | > 80% | – | > 80% | – | > 80% | –
CCS(=O)(=O)c1cc(-c2ccc(Cl)cc2)ccc1-c1nc2cc(C(F)(F)F)ncc2n1C [Compound P22] | > 80% | > 80% | > 80% | > 80% | ≥ 80% | – | > 80%
CCS(=O)(=O)c1cc(-c2cccc(-c3nnco3)c2)cnc1-c1nc2cc(C(F)(F)F)ncc2n1C [Compound P23] | > 80% | > 80% | > 80% | – | ≥ 80% | > 80% | > 80%
CCS(=O)(=O)c1cc(-c2ccc([Si](C)(C)C)cc2)cnc1-c1nc2cc(C(F)(F)F)ncc2n1C [Compound P26] | – | > 80% | > 80% | – | – | – | –
CCS(=O)(=O)c1cc(-c2ccc(C(F)(F)F)cc2)ccc1-c1nc2cc(C(F)(F)F)ncc2n1C [Compound P27] | > 80% | > 80% | > 80% | > 80% | ≥ 80% | – | > 80%
CCS(=O)(=O)c1cc(-c2ccccc2SC)cnc1-c1nc2cc(C(F)(F)F)ncc2n1C [Compound P28] | – | > 80% | > 80% | – | – | > 80% | –
CCS(=O)(=O)c1cc(-c2cccc(CC#N)c2)cnc1-c1nc2cc(C(F)(F)F)ncc2n1C [Compound P29] | – | – | – | – | – | > 80% | –
CCS(=O)(=O)c1cc(-c2ccccc2OCCSC)cnc1-c1nc2cc(C(F)(F)F)ncc2n1C [Compound P30] | > 80% | – | – | – | – | – | –
CCS(=O)(=O)c1cc(-c2ccc(CC#N)cc2)cnc1-c1nc2cc(C(F)(F)F)ncc2n1C [Compound P31] | – | > 80% | – | – | – | > 80% | –
CCSc1ccc(-c2cnc(-c3nc4cc(C(F)(F)F)ncc4n3C)c(S(=O)(=O)CC)c2)cc1 [Compound P32] | > 80% | > 80% | > 80% | – | – | > 80% | > 80%
CCSc1cc(-c2ccc(C(F)(F)F)cc2)ccc1-c1nc2cc(C(F)(F)F)ncc2n1C [Compound P33] | – | – | > 80% | – | – | – | > 80%
CCS(=O)(=O)c1cc(-c2cc(F)c(F)cc2F)cnc1-c1nc2cc(C(F)(F)F)ncc2n1C [Compound P35] | > 80% | > 80% | > 80% | – | ≥ 80% | – | > 80%
CCS(=O)(=O)c1cc(-c2ccc(-n3cccn3)cc2)cnc1-c1nc2cc(C(F)(F)F)ncc2n1C [Compound P37] | > 80% | > 80% | > 80% | – | – | > 80% | > 80%
CCc1ccccc1-c1cnc(-c2nc3cc(C(F)(F)F)ncc3n2C)c(S(=O)(=O)CC)c1 [Compound P38] | – | > 80% | > 80% | – | – | – | –
